Experiments:
Assay type in all cases: cell-based, human
MCF-7 = test: MTT anti-proliferative assay, MCF-7; details: Homo sapiens, MCF7
HepG-2 = test: MTT anti-proliferative assay, HepG-2; details: Homo sapiens, HepG2
K-562 = test: MTT anti-proliferative assay, K-562; details: Homo sapiens, K562
caspase-3 = test: Caspase-3 expression level in HepG-2 cells; details: for Caspase-3 ± SE: HepG-2, at IC50 concentrations, control 0.460
Protocol: (§1) All synthesized compounds were tested at their cytotoxic concentrations in HepG-2 cells for analysis of gene expression levels of apoptotic markers caspase-3, caspase-9, TNF-α, and IL-6 proteins, and only two active compounds were tested for BAX and Bcl-2 proteins.
(§2) through Flow cytometric analysis.
(§3) Pellets were collected again and incubated with
(§4) Total RNA from vehicle-treated
(§5) (Thermo Scientific, USA).
(§6) All experiments were performed in […]

caspase-9 = test: Caspase-9 expression level in HepG-2 cells; details: for Caspase-9 ± SE: HepG-2, at IC50 concentrations, control 11.01
Protocol: as §1, §2, §3, §4, §5, §6

TNF-alpha = TNF-alpha level in HepG-2 cells; details: control 43.48
Protocol: as §1, §2, §3, §4, §5, §6

IL-6R = IL-6R level in HepG-2 cells; details: control 44.10
Protocol: as §1, §2, §3, §4, §5, §6

Compound `O=C(Cn1cnc2cc([N+](=O)[O-])ccc2c1=O)Nc1ccc(Cl)cc1` [9c, N-(4-Chlorophenyl)-2-(7-nitro-4-oxoquinazolin-3(4H)-yl)acetamide] has a viability at 0.195 µmol (MCF-7; MCF-7, 0.195 umol) of 91.3%, a cytotoxicity at 0.195 µmol (MCF-7; MCF-7, 0.195 umol, read-out: Toxicity %) of 8.66% and a viability at 0.391 µmol (MCF-7; MCF-7, 0.391 umol) of 68.1%. It also gave a cytotoxicity at 0.391 µmol (MCF-7; MCF-7, 0.391 umol, read-out: Toxicity %) of 31.9%, a viability at 0.781 µmol (MCF-7; MCF-7, 0.781 umol) of 43% and a cytotoxicity at 0.781 µmol (MCF-7; MCF-7, 0.781 umol, read-out: Toxicity %) of 57%. For the same compound, the viability at 1.563 µmol (MCF-7; MCF-7, 1.563 umol) was 27.7%, the cytotoxicity at 1.563 µmol (MCF-7; MCF-7, 1.563 umol, read-out: Toxicity %) was 72.3% and the viability at 3.125 µmol (MCF-7; MCF-7, 3.125 umol) was 15.2%. For the same compound, the cytotoxicity at 3.125 µmol (MCF-7; MCF-7, 3.125 umol, read-out: Toxicity %) was 84.8%, the viability at 6.25 µmol (MCF-7; MCF-7, 6.25 umol) was 11.2% and the cytotoxicity at 6.25 µmol (MCF-7; MCF-7, 6.25 umol, read-out: Toxicity %) was 88.8%. The viability at 12.5 µmol (MCF-7; MCF-7, 12.5 umol) was 8.44%, the cytotoxicity at 12.5 µmol (MCF-7; MCF-7, 12.5 umol, read-out: Toxicity %) was 91.6% and the viability at 25 µmol (MCF-7; MCF-7, 25 umol) was 6.82%. For the same compound, the cytotoxicity at 25 µmol (MCF-7; MCF-7, 25 umol, read-out: Toxicity %) was 93.2%, the IC50 (MCF-7; MTT, MCF-7, read-out: Cytotoxicity against cancer cells IC50 MCF-7) was 672.4 ± 4.9 nM and the viability at 0.195 µg/mL (HepG-2; HepG-2, 0.195 ug/ml) was 83.4%. For the same compound, the cytotoxicity at 0.195 µg/mL (HepG-2; HepG-2, 0.195 ug/ml, read-out: Toxicity %) was 16.6%, the viability at 0.391 µg/mL (HepG-2; HepG-2, 0.391 ug/ml) was 70.3% and the cytotoxicity at 0.391 µg/mL (HepG-2; HepG-2, 0.391 ug/ml, read-out: Toxicity %) was 29.7%. It also gave a viability at 0.781 µg/mL (HepG-2; HepG-2, 0.781 ug/ml) of 56.1%, a cytotoxicity at 0.781 µg/mL (HepG-2; HepG-2, 0.781 ug/ml, read-out: Toxicity %) of 43.9% and a viability at 1.563 µg/mL (HepG-2; HepG-2, 1.563 ug/ml) of 34.4%. It also gave a cytotoxicity at 1.563 µg/mL (HepG-2; HepG-2, 1.563 ug/ml, read-out: Toxicity %) of 65.6%, a viability at 3.125 µg/mL (HepG-2; HepG-2, 3.125 ug/ml) of 16.8% and a cytotoxicity at 3.125 µg/mL (HepG-2; HepG-2, 3.125 ug/ml, read-out: Toxicity %) of 83.2%. The viability at 6.25 µg/mL (HepG-2; HepG-2, 6.25 ug/ml) was 11.7%, the cytotoxicity at 6.25 µg/mL (HepG-2; HepG-2, 6.25 ug/ml, read-out: Toxicity %) was 88.3% and the viability at 12.5 µg/mL (HepG-2; HepG-2, 12.5 ug/ml) was 7.36%. For the same compound, the cytotoxicity at 12.5 µg/mL (HepG-2; HepG-2, 12.5 ug/ml, read-out: Toxicity %) was 92.6%, the viability at 25 µg/mL (HepG-2; HepG-2, 25 ug/ml) was 6.23% and the cytotoxicity at 25 µg/mL (HepG-2; HepG-2, 25 ug/ml, read-out: Toxicity %) was 93.8%. The IC50 (HepG-2; MTT, HepG-2, read-out: Cytotoxicity against cancer cells IC50 HepG-2) was 1000 ± 4.9 nM, the viability at 0.195 µmol (K-562; K-562, 0.195 umol) was 80.6% and the cytotoxicity at 0.195 µmol (K-562; K-562, 0.195 umol, read-out: Toxicity %) was 19.4%. For the same compound, the viability at 0.391 µmol (K-562; K-562, 0.391 umol) was 60%, the cytotoxicity at 0.391 µmol (K-562; K-562, 0.391 umol, read-out: Toxicity %) was 40% and the viability at 0.781 µmol (K-562; K-562, 0.781 umol) was 33.6%. The cytotoxicity at 0.781 µmol (K-562; K-562, 0.781 umol, read-out: Toxicity %) was 66.4%, the viability at 1.563 µmol (K-562; K-562, 1.563 umol) was 22.3% and the cytotoxicity at 1.563 µmol (K-562; K-562, 1.563 umol, read-out: Toxicity %) was 77.7%. For the same compound, the viability at 3.125 µmol (K-562; K-562, 3.125 umol) was 11%, the cytotoxicity at 3.125 µmol (K-562; K-562, 3.125 umol, read-out: Toxicity %) was 89% and the viability at 6.25 µmol (K-562; K-562, 6.25 umol) was 8.29%. The cytotoxicity at 6.25 µmol (K-562; K-562, 6.25 umol, read-out: Toxicity %) was 91.7%, the viability at 12.5 µmol (K-562; K-562, 12.5 umol) was 7.43% and the cytotoxicity at 12.5 µmol (K-562; K-562, 12.5 umol, read-out: Toxicity %) was 92.6%. It also gave a viability at 25 µmol (K-562; K-562, 25 umol) of 7.02%, a cytotoxicity at 25 µmol (K-562; K-562, 25 umol, read-out: Toxicity %) of 93% and an IC50 (K-562; MTT, K-562, read-out: Cytotoxicity against cancer cells IC50 K-562) of 538.8 ± 1.7 nM. For the same compound, the “Caspase-3 ± SE” value (caspase-3) was 1.77 ± 0.08 ng/mL, the “Caspase-3 ± SE” value (caspase-3; listed as N2) was 1.77 ng/mL and the “caspase-3 expression level, fold increase” value (caspase-3; HepG-2, vs control cells) was 3.85 fold. For the same compound, the “Caspase-9 ± SE” value (caspase-9) was 70.03 ± 0.47 ng/L, the “Caspase-9 ± SE” value (caspase-9; listed as N2) was 70.03 ng/L and the “caspase-9 expression level, fold increase” value (caspase-9; HepG-2, vs control cells) was 6.37 fold. For the same compound, the “TNF-alpha ±SE” value (TNF-alpha; HepG-2, at IC50 concentrations) was 16.86 ± 2.39 ng/L, the “TNF-alpha ±SE” value (TNF-alpha; raw data, HepG2) was 23.47 ng/L and the “IL-6R ± SE” value (IL-6R; HepG-2, at IC50 concentrations) was 11.87 ± 0.80 ng/L. For the same compound, the “IL-6 ±SE” value (IL-6R; raw data, HepG2) was 24.59 ng/L.
